US20080206374A1 (priority 2003, published 2008)

Columns and labels:
[1] = system: thrombosis in vitro; experiment: thrombosis in vitro of rats (Chandler method); format: in vivo; conditions: 90 mg/kg i.v., once per day for 3 days
Description: (§1) All the animal groups were intravenously injected the medicaments through caudal vein with the said dose of 4 ml/kg, once per day for continuously 3 days. 30 minutes after the final injection, animals were anaesthetized with pentobarbital sodium (30.0 mg/kg). 2 ml blood was then drawn from the abdominal aorta for the measurement of the thrombosis in vitro and 3 ml blood (heparinized) was drawn for the measurement of blood viscosity.
Measurement of the thrombuses in vitro: According to Chandler method in vitro, the blood was immediately filled and sealed in a rotating ring with the volume less than ½ ring (1.8 ml). It was placed on a thrombosis Instrument and rotated for 10 minutes (with experimental temperature of 37° C.). Then the thrombus was spilled out and washed with physiological saline. The length was measured and the wet quality was weighed. The thrombus bar was placed in an 80° C. oven for 3 hours. It was weighed after the weight getting stable.

[2] = blood viscosity of rats; format: in vivo; conditions: 90 mg/kg i.v., once per day for 3 days
Description: as §1
Measurement of the blood viscosity: 0.8 ml blood was taken from the 3 ml blood sample (heparinized) to measure the whole blood viscosity. The rest of the sample was centrifuged at 650×g for 10 minutes. 0.8 ml supernatant was taken to measure the blood plasma viscosity.

[3] = system: Platelet Aggregation; experiment: platelet aggregation of rabbits (Born Turbidimetry); format: in vivo; conditions: 45 mg/kg i.v. once per day for 3 days
Description: Before administration, the artery in ears was punctured and the blood was taken to measure the platelet aggregation rate. According to the level of platelet aggregation and the body weight, the 48 rabbits were randomly divided into 6 groups (8 rabbits per group):
The administration groups were administered medicaments intravenously through ear edges with the said dosages, and the Control group was injected with equivalent volume of 0.9% sodium chloride, once per day for continuously 3 days. After the final medicaments administration, the artery in ears was punctured, the blood sample was taken and the platelet aggregation rate was measured.
The artery in ears was punctured with a siliconized injector to take blood sample, which was anticoagulated with the citron sodium solution (blood:anticoagulant=9:1). The blood sample solution was centrifuged at 200×g for 8 minutes, and the supernatant, that is, the Platelet Rich Plasma (PRP) was taken. The rest of the solution was centrifuged at 2200×g for 10 minutes, and the top clear part, that is, the Platelet Poor Plasma (PPP) was taken. The count of Platelets in PRP was about 4.0×10^5/mm^3. According to the Born Turbidimetry, the turbidity tube with 200 μl PRP and a small magnetic stick was placed in the platelet aggregation instrument and kept at 37° C. for one minute. After PPP being standardized, an inducer was added with stirring to induce the aggregation. The end concentration of the inducer is: 47.6 μM/L (ADP), 782.0 μM/L (M), and […] (Collagen). The influence of the medicaments upon the Platelet Aggregation was analyzed according to the aggregation curves and maximal aggregation rate printed by the instrument. The calculating formula for maximal aggregation rate was as follows:
aggregation=Transmittance after PRP Aggregation−Transmittance before PRP Aggregation×100% rate Transmittance of PPP−Transmittance before PRP Aggregation

[4] = system: Sarcoma S180 lines; conditions: cyclophosphamide alone
Description: Kunming Hybrid mice with weight of 18-22 g were inoculated with Sarcoma S180 lines.
The experimental medicament and animals of this experiment were the same as that of Experimental Example 2.

Structure (SMILES)	Thrombus Dry weight [1]	Thrombus Length [1]	Thrombus Wet weight [1]	Blood viscosity (100 S^−1) [2]	Whole blood viscosity, High shearing (200 S^−1) [2]	Whole blood viscosity, Low shearing (5 S^−1) [2]	Whole blood viscosity, Middle shearing (30 S^−1) [2]	Whole blood viscosity, Middle shearing (100 S^−1) [2]	Aggregation Rate After administration ([3]; Inducer AA)	Aggregation Rate Value Difference (after − before) ([3]; Inducer AA)	Aggregation Rate After administration ([3]; Inducer ADP)	Aggregation Rate Value Difference (after − before) ([3]; Inducer ADP)	Aggregation Rate After administration ([3]; Inducer Collagen)	Aggregation Rate Value Difference (after − before) ([3]; Inducer Collagen)	tumor body (M ± SD) [4]	Rate of Inhibiting tumors ([4]; compared with the Blank Control group)
CC(=O)Oc1ccccc1C(=O)O.NCCCCC(N)C(=O)O (racemic) [Aspirin-DL-Lysine]	18.9 ± 1.4 mg	18.8 ± 1.5 mm	100.1 ± 12.5 mg	2.38 ± 1.12	3.37 ± 0.58 CP	6.35 ± 1.03 CP	4.71 ± 0.95 CP	3.81 ± 0.91 CP	0.24 ± 0.69%	−63.65 ± 7.05 %	57.78 ± 6.01%	8.85 ± 6.37%	45.29 ± 5.72%	−21.19 ± 4.24 %	–	–
O=P1(N(CCCl)CCCl)NCCCO1 (stereo not shown) [cyclophosphamide]	–	–	–	–	–	–	–	–	–	–	–	–	–	–	0.89 ± 0.55 volume %	65%Δ
